Counter-ions that a name gives are not always drawn.
Columns and labels:
Assay type in all cases: biochemical
Details in all cases: FDA-approved drug screen; compared to DMSO
[1] = target: T1, recombinant PRL-2 (Homo sapiens, UniProt Q12974); test: In vitro phosphatase assay (DiFMUP hydrolysis), PRL-2;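 also: PRL-2 activity read as DiFMUP hydrolysis after 20 min at room temperature with drug, enzyme first pre-reduced at 4 °C for 20 min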
T1 construct: 6xHis (N, cleaved yes); made in house; host or cells: E. coli One Shot BL21 Star
T1 sequence (Q12974 1-167): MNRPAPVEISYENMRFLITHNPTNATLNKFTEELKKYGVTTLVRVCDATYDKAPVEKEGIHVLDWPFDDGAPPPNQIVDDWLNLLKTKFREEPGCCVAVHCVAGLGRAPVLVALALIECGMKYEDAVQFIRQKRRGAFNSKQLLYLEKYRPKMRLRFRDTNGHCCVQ

[2] = target: T2, recombinant PRL-1 (Homo sapiens, UniProt Q93096); test: In vitro phosphatase assay (DiFMUP hydrolysis), PRL-1; also: test concentration or dose not given here
T2 construct: 6xHis (N, cleaved yes); made in house; host or cells: E. coli One Shot BL21 Star
T2 sequence (Q93096 1-173): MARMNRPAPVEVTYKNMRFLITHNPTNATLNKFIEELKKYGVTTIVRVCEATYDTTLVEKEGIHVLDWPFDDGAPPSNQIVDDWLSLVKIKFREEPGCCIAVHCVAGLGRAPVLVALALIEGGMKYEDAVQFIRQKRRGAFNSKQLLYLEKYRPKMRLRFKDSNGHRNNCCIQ

[3] = target: T3, recombinant PRL-3 (Homo sapiens, UniProt O75365); test: In vitro phosphatase assay (DiFMUP hydrolysis), PRL-3; also: test concentration or dose not given here
T3 construct: 6xHis (N, cleaved yes); made in house; host or cells: E. coli One Shot BL21 Star
T3 sequence (O75365 whole entry): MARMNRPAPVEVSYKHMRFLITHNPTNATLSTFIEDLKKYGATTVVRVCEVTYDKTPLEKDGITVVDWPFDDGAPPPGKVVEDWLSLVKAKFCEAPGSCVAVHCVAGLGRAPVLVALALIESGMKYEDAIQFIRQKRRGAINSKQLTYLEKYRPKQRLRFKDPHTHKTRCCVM

Row | Compound | % Phosphatase Activity (compared to DMSO) PRL-2 [1] | % Phosphatase Activity (compared to DMSO) PRL-1 [2] | % Phosphatase Activity (compared to DMSO) PRL-3 [3]
1 | COc1ccccc1Oc1c(NS(=O)(=O)c2ccc(C(C)(C)C)cc2)nc(-c2ncccn2)nc1OCCO [Bosentan] | 84% | 83% | 71%
2 | O=c1ccc2ccc(OCCCCN3CCN(c4cccc5sccc45)CC3)cc2[nH]1 [Brexpiprazole] | 115% | 97% | 92%
3 | CCN[C@H]1CN(CCCOC)S(=O)(=O)c2sc(S(N)(=O)=O)cc21 [Brinzolamide] | 110% | 92% | 81%
4 | Nc1c(CC(=O)O)cccc1C(=O)c1ccc(Br)cc1 [Bromfenac Sodium] | 99% | 86% | 75%
5 | CN(Cc1cc(Br)cc(Br)c1N)C1CCCCC1 [Bromhexine HCl] | 122% | 95% | 86%
6 | CN(C)CCC(c1ccc(Br)cc1)c1ccccn1.O=C(O)/C=C\C(=O)O (stereo not drawn) [Brompheniramine hydrogen maleate] | 107% | 108% | 78%
7 | O=[N+]([O-])C(Br)(CO)CO [Bronopol] | 96% | 103% | 86%
8 | Oc1c(Br)cc(Br)c2cccnc12 [Broxyquinoline] | 101% | 94% | 72%
9 | CCOc1ccc(NC(=O)CC(C)O)cc1 (stereo not drawn) [Bucetin] | 108% | 109% | 92%
10 | CCCC1O[C@@H]2C[C@H]3[C@@H]4CCC5=CC(=O)C=C[C@]5(C)[C@H]4[C@@H](O)C[C@]3(C)[C@]2(C(=O)CO)O1 (stereo partly drawn) [Budesonide] | 100% | 93% | 76%
11 | CCCCOc1ccc(CC(=O)NO)cc1 [Bufexamac] | 110% | 117% | 91%
12 | CCCCNc1cc(C(=O)O)cc(S(N)(=O)=O)c1Oc1ccccc1 [Bumetanide] | 128% | 123% | 98%
13 | CCCCN1CCCCC1C(=O)Nc1c(C)cccc1C (stereo not drawn) [Bupivacaine HCl] | 108% | 108% | 82%
14 | O=C1CC2(CCCC2)CC(=O)N1CCCCN1CCN(c2ncccn2)CC1 [Buspirone HCl] | 91% | 89% | 75%
15 | CS(=O)(=O)OCCCCOS(C)(=O)=O [Busulfan] | 95% | 103% | 79%
16 | CCCCOC(=O)c1ccc(N)cc1 [Butamben] | 94% | 91% | 80%
17 | CN(Cc1ccc(C(C)(C)C)cc1)Cc1cccc2ccccc12 [Butenafine HCl] | 112% | 117% | 88%
18 | Clc1ccc(CCC(Cn2ccnc2)Sc2c(Cl)cccc2Cl)cc1 (stereo not drawn) [Butoconazole nitrate] | 109% | 97% | 98%
19 | CCCCOC(=O)c1ccc(O)cc1 [Butylparaben] | 94% | 91% | 80%
